# Data: patent EP2371816A1, “Aminocyclohexenone, their preparation and use as medicament against oxidative stress” (ABIOGEN PHARMA S.p.A., priority 2010, dated 2011)
# Legend:
# [1] = TEAC method (Trolox Equivalent Antioxidant Capacity Assay); settings: ratio of gradient to gradient of reference (trolox); 37 °C, 650 nm, pH 4.5
# From the text: This assay is used to measure the total antioxidant activity of pure substances, biological fluids and plant compounds and is based on the reaction of antioxidants with the cation radical ABTS^˙+ (2,2'-azinobis(3-ethylbenzothiazolin-6-sulphonate)). This cation radical is metastable and has to be generated just before the experiment by reacting ABTS with hydrogen peroxide in the presence of HRP.
# This radical can be reduced, with consequent loss of absorbance, by an antioxidant whose scavenging capacity can be measured spectrophotometrically at 650 nm. The test is carried out at 37 °C and the results are obtained from a comparison with Trolox (a synthetic antioxidant and hydrophilic analogue of vitamin E).
# The ABTS solution S1 was prepared as follows: • 20 mg of ABTS were added to 50 mM of citric acid buffer (40 ml) at pH=4.5 and to the resulting solution there was added an aqueous solution of HRP (4.4 mg, 400 µl) and an aqueous solution of H2O2 (10 µl of a 30% solution diluted with 16.3 ml of water).
# For each of the compounds (2), (6) and (7), as synthesized above, there was prepared a 600 µM solution in water, methanol or DMSO according to its solubility, as well as a Trolox solution as reference.
# Each solution was diluted to produce 6 solutions each at a concentration between 25 µM and 300 µM. From each of the diluted and divided solutions, there were withdrawn 20 µl to which 200 µl of solution S1 were then added.
# The decrease in absorbance of each solution thus obtained was monitored at 650 nm until a stable value was reached (about 90 minutes).
# For each set of 6 solutions and for the reference trolox solution, the absorption was given in graph form as a function of the amount of compound (nmol) in the solution. The gradient of the straight line obtained by linear interpolation was determined according to the least squares method. The TEAC value of each compound of the invention is given in the table below and is expressed as the ratio between the gradient of the resulting straight line and the gradient of the reference (trolox) straight line.
# [2] = pH at the semi-neutralization point of titration (pKa); assay type: physicochemical; settings: titration with 0.1 N NaOH or HCl; for pKa: read-out: Acid dissociation constant: pKa
# Protocol: The following equipment was used during the implementation of all the examples: • for melting point determination a Buchi B-540 instrument was used; • for pH determination at the semi-neutralization point of titration (pKa) a Mettler Toledo DL-50 instrument was used with a 0.1 N xNaOH or HCl solution; • the ^1H-NMR spectra were recorded at 300 MHz and the ^13C-NMR spectra were recorded at 75 MHz using a Varian Unity 300 instrument; • spectrophotometric measurements were carried out using a Lambda Perkin Elmer 15 UV/Vis spectrophotometer for the DPPH assay and a Wallac Victor 1420 multilabel counter spectrophotometer.
# [3] = tested on: cerebral oxidative stress induced in mice by doxorubicin; test: In vivo assay of cerebral oxidative stress induced in mice by doxorubicin; settings: for Brain/BWi / CAT/pr / GPX/pr / GSH/pr / GST/pr / Prot. Hmg / Prot. Ox/pr / SOD/pr: % variation relative to the vehicle, 50 mg/kg IP x3 days (D = doxorubicin alone); for Brain/BWi / CAT/pr / GPX/pr / GSH/pr / GST/pr / Prot. Hmg / Prot. Ox/pr / SOD/pr / Mean % variation relative to the vehicle: healthy animals; for Mean % variation relative to the vehicle: 50 mg/kg IP days 0, 1 and 2, mean over all parameters, approximate safety index (D = doxorubicin alone)
# Protocol: The assay was carried out on compounds (1) and (3)-(6) and on edaravone (E) as comparative compound.
# 10 mice were used for each treatment group. For each compound 50 mg/kg were administered intraperitoneally (IP) for three consecutive days (day 0, 1 and 2); half the animals (5) also received IP 16.7 mg/kg of doxorubicin immediately after the first treatment (day 0). On the day after the last administration (day 3) the animals were killed by neck dislocation and the brains were removed, weighed and frozen in liquid nitrogen.
# For the analyses of oxidative stress, 100 mg/ml of brain homogenate was prepared in Hebe buffer (pH 7.4 EDTA/HEPES^(**)) containing a mixture of enzyme inhibitors (Leupeptin, Pepstatin, Aprotinin, BHA). • ^(*) Hypotonic Extraction Buffer • ^(**) 4-2-hydroxyethyl-1-piperazinyl-ethanesulphonic acid
# The evaluation parameters were: • BrW/BWi: ratio between final brain weight and initial body weight (day 0); • Prot. Hmg: total proteins in the homogenate (BCA method, i.e. bicinchoninic acid); • Prot. Ox: oxidized proteins in the Hmg by means of a colorimetric method using […] (DNPH); • GSH: reduced glutathione in the supernatant (sn) of the Hmg, obtained after precipitation with metaphosphoric acid (MPA), by means of a colorimetric method using […] (DTNB); • CAT: catalase in the Hmg by a colorimetric method using potassium dichromate; • SOD: superoxide dismutase by a colorimetric method using SOD Reagent (xanthine, EDTA, nitroblue tetrazole, Na2CO3, BSA, i.e. bovine serum albumin); • GST: glutathione S-transferase in the supernatant by a colorimetric method using chlorodinitrobenzene (CDNB) and GSH; and • GPx: glutathione peroxidase in the supernatant after addition of GSH and tert butyl hydroperoxide (t-BuOOH), heating and precipitation with MPA; followed by GSH method with DTNB.
# All the parameters, with the exclusion of Brain/BWi and Prot. Hmg, were normalized for total Hmg proteins (Table 3). The D value standard deviations and the % incidence relative to V are given in italics.
# The mean % effect, on all the parameters simultaneously, of the triple treatment in the healthy animals, as mean percentage variation relative to the vehicle (table 4). This value is useful as an approximate safety index of the oxidative state of the brain, i.e. the capacity of the compounds of the invention not to alter cerebral homeostasis in healthy animals.
# The effect of the tested compounds on the "oxidized" animals was given as % inhibition relative to the percentage variation due to doxorubicin alone. The effect of the compounds on the oxidized animals can be expressed both as a function of the values of the vehicle (healthy, vehicle only) and as a function of the value of its own control (healthy, compound only): • Vehicle: percentage [(Compound+D)/V]x100/[(V+D)/V]x100 • Its own: percentage [(Compound+D)/Compound]x100/[(V+D)/V]x100
# [4] = mouse, in vivo
# Protocol: The ability of the compounds of the invention to penetrate the brain was investigated by measuring their brain/plasma (B/P) concentration ratio in mice following intraperitoneal administration.
# Female CD-1 mice were used (n=3 for each time period) and received the compounds of the invention by intraperitoneal administration, in 25 mg/kg doses in a 0.5% NaHCO3 buffer (pH 8.3). At predefined intervals following said administration, i.e. 5, 15, 30 and 60 minutes, the mice were killed and both plasma and total brain tissue were collected.
# Specifically, after anaesthesia with ether, the animals were bled by blood withdrawal from the abdominal aorta then immediately decapitated. The blood samples were collected into plasma separator tubes containing Li-Heparin as anticoagulant and centrifuged. The resulting plasma was then stored at -20 °C. The brain was rapidly removed from the cranium and weighed, subsequently frozen and stored at -20 °C before treatment by homogenization and HPLC analysis.
# The plasma was thawed and mixed with an equal volume of the extraction solution. This extraction solution was a mixture of aqueous and organic solvents whose composition had been previously determined by HPLC undertaken for each analyte.
# 1 ml of solution was then extracted by adding 20 µl of 70% HClO4 then centrifuged at 15,500g for 5 minutes and injected into the HPLC.
# Each brain was thawed and homogenized with the extraction solution to provide a final composition of 4 ml/1g of tissue by means of an Ultra-Turrax blender and sonicated for 5 minutes. After centrifugation of the homogenate at 15,500g for 5 minutes, the resulting solution was treated with HClO4, as indicated for the plasma.
# Specific chromatographic conditions had been developed for each analyte, the calibration curve being constructed for plasma and brain homogenate.
# [5] = Acute toxicity study, intraperitoneal single dose (OECD guideline no. 420); assay type: in vivo; settings: result in words, with reference to Example 13
# Protocol: This study was carried out with the purpose of investigating the toxicity of a single dose of the listed compounds administered to ICR (CD-1) female mice. According to the current OECD guideline no.
# The mice used were all female and were treated by intraperitoneal injection administration. The animals were observed individually and regularly for the first 4 hours and within 24 hours after administration, and then twice a day for the whole observation period. As soon as the animals were stabilized, observations at the weekend were undertaken once only during the day.
# The evaluated parameters included the survival, body weight development, variations in skin and fur, changes in ocular, conjunctival and buccal mucous membranes, changes in activities of the respiratory, circulatory, autonomous and central nervous systems, changes in somatomotor activity and in behaviour.
# Any appearance of tremors, convulsions, salivation, diarrhea, lethargy, drowsiness and coma were attentively and regularly monitored. At the end of the observation period, a post-mortem was carried out on all the animals.
# [6] = % inhibition relative to variation due to doxorubicin alone, oxidized animals, as function of its own control
# [7] = % inhibition relative to variation due to doxorubicin alone, oxidized animals, as function of vehicle
Structure (SMILES),TEAC [1],Brain/BWi [3] [%],CAT/pr [3] [%],GPX/pr [3] [%],GSH/pr [3] [%],GST/pr [3] [%],Prot. Hmg [3] [%],Prot. Ox/pr [3] [%],SOD/pr [3] [%],Mean % variation relative to the vehicle [3] [%],bioavailability at the target site / crossing of the blood-brain barrier [4],toxicity evaluation in vivo (tolerability) [5],pKa [2],other results
"O=C1C=C(NN2CCCCC2)CC(c2ccccc2)C1 (stereo not drawn) [(2), 5-phenyl-3-(piperidin-1-ylamino)cyclohex-2-enone]",1.67,,,,,,,,,,,,,
"CC1(C)CC(=O)C=C(N(O)Cc2cccnc2)C1 [(4), 3-(hydroxy(pyridin-3-ylmethyl)amino)-5,5-dimethylcyclohex-2-enone]",,-0.1,-9.3,0.1,-0.2,0.5,1.2,-10.3,0.0,0.0,"particularly bioavailable, as well as able to cross the blood-brain barrier in effective amounts",well tolerated,,"Acid dissociation constants: pKa1 [2]: 2.70; Acid dissociation constants: pKa2 [2]: 6.47; Brain/BWi its own [3, 6]: 56.5%; CAT/pr its own [3, 6]: -43.2%; GPX/pr its own [3, 6]: -6.1%; GSH/pr its own [3, 6]: 35.2%; GST/pr its own [3, 6]: -34.1%; Prot. Hmg its own [3, 6]: -38.6%; Prot. Ox/pr its own [3, 6]: 57.6%; SOD/pr its own [3, 6]: 73.4%; Brain/BWi vehicle [3, 7]: 79.7%; CAT/pr vehicle [3, 7]: 9.1%; GPX/pr vehicle [3, 7]: -8.1%; GSH/pr vehicle [3, 7]: 39.2%; GST/pr vehicle [3, 7]: -45.1%; Prot. Hmg vehicle [3, 7]: 1.2%; Prot. Ox/pr vehicle [3, 7]: -106.4%; SOD/pr vehicle [3, 7]: 73.4%"
"CC1(C)CC(=O)C=C(N(O)Cc2ccccn2)C1 [(5), 3-(hydroxy(pyridin-2-ylmethyl)amino)-5,5-dimethylcyclohex-2-enone]",,-3.3,-6.2,1.5,-0.9,3.1,0.7,-5.5,-2.3,-0.4,"particularly bioavailable, as well as able to cross the blood-brain barrier in effective amounts",well tolerated,4.2,
"CC1(C)CC(=O)C=C(NN2CCOCC2)C1 [(7), 5,5-dimethyl-3-(morpholinoamino)cyclohex-2-enone]",0.8,,,,,,,,,,"particularly bioavailable, as well as able to cross the blood-brain barrier in effective amounts",well tolerated,2.94,
"COc1cccc2c1C(=O)c1c(O)c3c(c(O)c1C2=O)C[C@@](O)(C(=O)CO)C[C@@H]3O[C@H]1C[C@H](N)[C@H](O)[C@H](C)O1 [D, doxorubicin, reference compound]",,,-13.2,-9.9,-12.5,-9.1,8.3,17.2,-14.3,-11.4,,,,"Brain/BWi ([3]; 50 mg/kg): -6.9%; Brain/BWi ([3]; listed as Doxo, 50 mg/kg): 6.9%"
"O=C1O[C@H]([C@@H](O)CO)C(O)=C1O [vitamin C, reference compound]",0.9,,,,,,,,,,,,,
